The results in this text go back to patent EP1891948A1, “Treatment of neurological and neuropsychological disorders” (Probiodrug AG, priority 2000, dated 2002).

Assay [1] has as its system WistarF/Han (WF) rats. The assay can be described thus: Social interaction (SI) test of anxiety, combined i.c.v. treatment (Example 3). It is filed as in vivo. The settings on record: isoleucyl thiazolidine alone 5pmol-500nmol, Fig. 7. How it is done: Animals. Male WistarF/Han (WF) rats (Central Animal Laboratory, Hannover Medical School, Hannover, Germany, see http://www.mh-hannover.de/institut/tierlabor/wf.htm for details), weighing 330-370g, were housed in a sound-proof, temperature controlled (24.0±0.5°C) room under specific pathogen free conditions with a 12/12h dark/light cycle (lights on at 07.00 with illumination level of 80 Lux). Food (Altromin lab chow pellets) and tap water were available ad libitum. Under ketamine/xylasine (100/5 mg/kg, i.p.) anesthesia, the rats were fixed in a Kopf stereotaxic frame and implanted with cannulae (Plastic One, Inc., Roanoke, VA, USA) above the lateral ventricle. […]
(§1) Animals were randomly divided into two sets of four experimental groups (n=5-6/group), which completed different consecutive SI test of anxiety. […] The time spent in active social interaction (SI-time), 1h and 12h food-intake were measured. […]
Social interaction (SI) test. […] Behavior was monitored using a video camera placed above the field inside the testing/isolation box. The SI behavior of both rats was recorded on-line from a monitor placed outside on top of the box. The following parameters were scored by an observer (HPN) unaware of the substrain of rats: duration of time spent in sniffing, following, crawling under and over other rats, but not passive body contact (resting, sleeping). […]

Assay [2] concerns WistarF/Han (WF) rats. The experiment in a line: 1h and 12h food intake after combined i.c.v. treatment (Example 3). The conditions noted are these: Fig. 8. The format is in vivo. Here is the method: Animals. Male WistarF/Han (WF) rats (Central Animal Laboratory, Hannover Medical School, Hannover, Germany, see http://www.mh-hannover.de/institut/tierlabor/wf.htm for details), weighing 330-370g, were housed in a sound-proof, temperature controlled (24.0±0.5°C) room under specific pathogen free conditions with a 12/12h dark/light cycle (lights on at 07.00 with illumination level of 80 Lux). Food (Altromin lab chow pellets) and tap water were available ad libitum. Under ketamine/xylasine (100/5 mg/kg, i.p.) anesthesia, the rats were fixed in a Kopf stereotaxic frame and implanted with cannulae (Plastic One, Inc., Roanoke, VA, USA) above the lateral ventricle. All research and animal care procedures were approved by the Lower Saxony district government (Hannover, Germany) and followed principles described in the European Community's Council Directive of 24 November 1986 (86/609/EEC).
Surgery and i.c.v. application. For surgery, rats were anesthetized and prepared with i.c.v. cannulae (coordinates: A:-0.7mm caudal, L:1.4mm lateral to bregma; and V3.2mm ventral to the skull surface; tooth bar +3.0 above ear bars) using standard stereotaxic procedures as described in detail elsewhere (von Hörsten et al., 1998a,b,c). After a 7-day recovery period, successful ventricle cannulation was confirmed by an angiotensin drinking response (von Hörsten et al., 1998a). Rats showing a positive drinking response (n=59) were then habituated to experimental handling by daily sham injections for seven days.
as §1
Statistical analysis. Data from repeated observations (food intake) were analyzed by two-way analyses of variance for repeated measures (ANOVA) (factors: "substrain" and "food intake" as repeated measure). Data obtained from simple measures such as DP IV activity or SI time were analyzed by one-way (factor: "substrain") ANOVA. […]

Molecules are shown by their SMILES.

In the case of `CCC(C)C(N)C(=O)N1CCSC1` (stereo not drawn) [isoleucyl thiazolidine], in the assay with WistarF/Han (WF) rats [1], the “time spent in active social interaction (SI-time)” value is “"bell-shaped" dose-dependent anxiolytic-like effects”. In the assay with WistarF/Han (WF) rats [2], the “dose at which the 1h feeding effect reaches significance” value is given as 0.05 nmol. For the same compound, the “amount of food eaten within 1h” value in the assay on WistarF/Han (WF) rats [2] (single agents or combination, isoleucyl thiazolidine 5pmol-500nmol, NPY 50pmol-1.6nmol) is on record as “mild feeding effect”.
